From US4080471A, “Use of substituted isopropylaminopropanols for inducing inotropic effects of the human heart” (priority 1976, dated 1978)

Legend:
[1] = molecular target: T1, beta-receptors of the blood vessels (Felis catus, UniProt Q9TST5); test: Vasodilatating effect (hind limb perfusion pressure) on anesthetized cat pretreated with reserpine; format: in vivo; details: iv; reserpinized anesthetized cat, i.v.; estimated dose giving 50% of maximal effect; read-out: ED50 Vasodilation
T1 construct: from tissue; host or cells: hind-limb vascular bed of the anaesthetized cat in vivo (constant-flow perfusion, reserpine-pretreated)
Experimental: (§1) Chronotropic (heart frequency) and vasodilatating effects:
(§2) When the cats had been anaesthetized with Mebumal® 30 mg/kg bodyweight i.p., an artificial air respiration was started. The two vagus nerves were cut and the blood passing through a femoral artery was fed via a catheter and a pump back to the distal part of the vessel. Parallelly, a pressure transducer was connected by which the perfusion pressure was registered. At a perfusion with a constant flow, the perfusion pressure is directly proportional to the peripheral resistance of the vascular bed of the hind limb. Blood circulation in the foot was interrupted with a ligature. Heart frequency was registered with a cardiotachometer triggered by the ECG. The substances were administered intravenously in increasing doses and the dose-response curves of the heart frequency and the vasodilatation were constructed.
(§3) Further, the dose ratios (ED50 for vasodilatation/ED50 for heart frequency) are calculated. A dose ratio >1 indicates a heart selective effect.

[2] = system: beta-receptors of the heart; test: Beta-adrenergic (chronotropic, heart frequency) effects on anesthetized cat pretreated with reserpine; format: in vivo
Experimental: as §1, §2, §3

[3] = molecular target: T2, beta-receptors of the heart (Felis catus, UniProt Q9TST6); test: as above; format: in vivo; details: for potency relative to isoprenaline, chronotropic effect: isoprenaline = 1, cat i.v.; for ED50: iv, reserpinized anesthetized cat, i.v., estimated dose giving 50% of maximal effect, read-out: ED50 Heart Frequency
T2 construct: Heart frequency was registered with a cardiotachometer triggered by the ECG; from tissue; host or cells: heart of the anaesthetized cat in vivo (reserpine-pretreated, vagotomized)
Experimental: as §1, §2, §3

heart [4] = test: Effect on heart chronotropy and inotropy of a conscious dog; details: for Enddiastolic volume / Stroke volume / Mean arterial blood pressure / Peak aortic flow / Mean ejection rate / Max. dF/dt: change i.v. at heart frequency +10 beats/min, interpolated, paced; for Enddiastolic volume: calculated from left ventricle diameter; for Stroke volume: methyl scopolamine pretreated; for Mean ejection rate: stroke volume / ejection time; for side effects: I and II 10 and 20 μg/kg; for Max. dF/dt: maximum flow acceleration in aorta
Description: During anesthesia a catheter was introduced in the aorta, an electromagnetic flow probe was placed around the ascending aorta, and induction coils were placed diametrically on the inside of the left ventricle. The experiments were started about 2 weeks after the incision, when the dog had recovered completely.
When the dog was resting, the arterial blood pressure, the flow in the aorta, the maximum flow acceleration in the aorta (maximum dF/dt), heart frequency, the diameter of the left ventricle, and ECG were registered. The effects of compounds I and II were registered at 10, 20, and 30 minutes after administration. […] The compounds were given intravenously in the following doses. […] In order to eliminate vagal influence on the heart the dog was pretreated with methyl scopolamine 0.012 mg/kg bodyweight intramuscularily 20 minutes before the administration of the compounds. From the data giving the diameter of the left ventricle, the end diastolic volume was calculated according to E. W. Hawthorne. Mean ejection rate (ml/sec.) was calculated by dividing the stroke volume with the ejection time. […] The values given are the percentage changes after administration when the heart frequency has increased 10 beats per minute, values interpolated. […] In order to compare the inotropic effects of ouabain with those of the other compounds, the heart was stimulated in these experiments by electric pacing to a frequency which was 10 beats/minute above that registered before administration.
In order to investigate the absorption and duration of the effect, compounds I and II were given orally in an amount of 100 μg/kg bodyweight.

heart [5] = test: Repetitive ventricular response (RVR) / spontaneous arrhythmia in the anesthetized dog; format: in vivo; details: 40 μg/kg bodyweight
Description: (§4) Effects of Compound I and Ouabain On the Heart Contractility and Rhythmicity of the Anesthetized Dog
(§5) The object of the test was to compare compound I and oubain administered alone and in combination with each other to study the inotropic effect (maximum dP/dt in the left ventricle) and a possibly arrhythmic effect. The latter included an investigation of the ability of the compounds to cause repetitive ventricular response (RVR) when the heart was electrically stimulated via an electrode on the ventricle at the electrically vulnerable phase at the end of the T-wave. Klein et al. (M. Klein, N. S. Nejad, B. Lown, F. Hagemeijer and I. Blair, Circulation Research, 29, 635 (1971)) have shown that digitalis caused RVR at a dose which was about 70% of the dose giving spontaneous ventricular arrhythmias.
(§6) The dog was anesthetized with Mebumal® 30 mg/kg bodyweight i.v. Artificial respiration was applied. The sinus-node was electrocoagulated and the heart frequency was kept constant at 180 beats/minute in each test by electrical pacing of the auricle. Mean arterial blood pressure was registered from the carotis artery. ECG was registered during the test. Further, the pressure in the left ventricle was registered via a catheter inserted through the apex and connected to a pressure transducer. The intraventricular pressure curve was derivated to obtain maximum dP/dt which is a measure of the contractile force of the heart.
(§7) The test was started with a series of control registrations, whereupon the compounds were administered 3 times by infusion during five minutes and with an interval of 50 minutes between each infusion.
(§8) In the experiment with compound I only, the compound was administered in two doses of 10 μg/kg bodyweight and then one dose of 20 μg/kg bodyweight. Ouabain was given in 3 consecutive doses of 20 μg/kg bodyweight. In the combination test ouabain was first given in a dose of 20 μg/kg bodyweight followed by two doses of compound I of 10 and 20 μg/kg bodyweight, respectively.

heart [6] = test: Effect on heart contractility (maximum dP/dt) of the anesthetized dog; format: in vivo
Description: as §4, §5, §6, §7, §8

heart [7] = test: Ventricular arrhythmia in dogs after two-stage ligation of the left anterior coronary artery (third day post infarction); format: in vivo, dog; details: 1-norepinephrine 20 μg/kg/min infusion, 120 minutes
Experimental: Harris, A. S. Delayed Development of Ventricular Ectopic Rhythms following Coronary Occlusion, Cir. l, p 1318, (1950) described a method of two-stage ligation of the left anterior coronary artery in the dog. This method produces a multifocal ventricular arrhythmia that generally remains persistent on the first post ligation day (day 1-24 hours post infarct). The arrhythmia slowly disappears, and by the third post-ligation day the animal has essentially a normal sinus rhythm.
Maling, H. M. and Moran, N. C., Ventricular Arrhythmias Induced by Sympathominetic Amines in Unanesthetized Dogs Following Coronary Artery Occlussion, Cir.
METHODS, MATERIALS AND EXPERIMENTAL DESIGN
Seventeen adult female beagle dogs were used. Their ages ranged from one to three years. These animals were divided into two groups.
The first group consisted of 12 dogs and served as a control group. All animals were subjected to a two-stage ligation of the left anterior coronary artery. On the first post operative day these twelve animals were given various experimental antiarrhythmic agents as part of a routine testing procedure. It should be noted that, due to the nature of these agents, there would be no test drug or only trace amounts of test drug in the blood on day 3, and these amounts would cause little or no change on the outcome of a third day test. It should also be noted that all twelve of these animals has at least 85% ventricular ectopic beats on the morning after surgery in order to be accepted for testing.
On the third day post infarction the dogs were suspended in a standing position in a canvas sling. No anesthesia or sedation was used. ECGs were recorded as well as blood pressure. After a control period, an infusion of 20 μg/kg min. of 1-norepinephrine was begun using a Harvard infusion/withdrawal pump. This infusion lasted 120 minutes.
These five animals were all subjected to a two stage ligation of the anterior descending coronary artery. On day 1 and day 2 each dog was suspended in a canvas sling in the standing position and ECG, blood pressure, and other physiologic measurements were taken. […]

[8] = dose ratio >1 indicates a heart selective effect
[9] = conscious dog, ouabain 30 μg/kg i.v.
[10] = 20 minutes after administration, ouabain versus compound I
[11] = anesthetized dog, i.v. infusion

T2 sequence (Q9TST6 whole entry): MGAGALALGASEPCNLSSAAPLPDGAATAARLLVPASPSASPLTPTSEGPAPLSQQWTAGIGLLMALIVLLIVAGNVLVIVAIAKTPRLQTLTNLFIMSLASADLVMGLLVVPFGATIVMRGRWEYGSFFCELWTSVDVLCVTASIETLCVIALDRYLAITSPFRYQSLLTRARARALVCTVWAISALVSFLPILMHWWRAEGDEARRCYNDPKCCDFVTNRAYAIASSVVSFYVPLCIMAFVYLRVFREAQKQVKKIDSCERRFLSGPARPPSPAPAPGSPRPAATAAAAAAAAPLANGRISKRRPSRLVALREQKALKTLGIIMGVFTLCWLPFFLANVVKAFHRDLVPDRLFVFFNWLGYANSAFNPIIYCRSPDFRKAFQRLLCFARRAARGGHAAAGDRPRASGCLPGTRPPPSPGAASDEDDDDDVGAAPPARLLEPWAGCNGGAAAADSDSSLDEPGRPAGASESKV
T1 sequence (Q9TST5 whole entry, the tested form may be a part): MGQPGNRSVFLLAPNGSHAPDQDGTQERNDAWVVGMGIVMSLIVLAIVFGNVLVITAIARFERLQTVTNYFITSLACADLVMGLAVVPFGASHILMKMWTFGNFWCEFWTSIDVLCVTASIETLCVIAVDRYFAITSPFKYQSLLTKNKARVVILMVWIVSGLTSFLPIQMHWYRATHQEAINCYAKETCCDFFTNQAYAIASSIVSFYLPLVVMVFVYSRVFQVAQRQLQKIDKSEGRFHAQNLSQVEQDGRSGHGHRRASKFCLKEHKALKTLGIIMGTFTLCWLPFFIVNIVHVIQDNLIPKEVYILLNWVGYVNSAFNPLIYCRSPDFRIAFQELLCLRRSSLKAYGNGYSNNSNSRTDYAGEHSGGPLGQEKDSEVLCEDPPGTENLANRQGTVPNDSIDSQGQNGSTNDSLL

| Structure (SMILES) | ED50 [1] [mg/kg] | Selectivity: ED50 Vasodilatation / ED50 Heart Frequency [2, 8] | potency relative to isoprenaline, chronotropic effect [3] | ED50 [3] [mg/kg] | Enddiastolic volume (heart [4]; ouabain 30 μg/kg i.v.) [%] | Stroke volume (heart [4]; ouabain 30 μg/kg i.v.) [%] | Mean arterial blood pressure (heart [4]; ouabain 30 μg/kg i.v.) [mm Hg] | Peak aortic flow (heart [4]; ouabain 30 μg/kg i.v.) [%] | Mean ejection rate (heart [4]; ouabain 30 μg/kg i.v.) [%] | side effects (heart [4]; [9]) | Max. dF/dt (heart [4]; ouabain 30 μg/kg i.v.) [%] | also measured |
| --- | --- | --- | --- | --- | --- | --- | --- | --- | --- | --- | --- | --- |
| CC(C)NCC(O)COc1ccc(OC(=O)C(C)C)cc1 (centres unmarked) [II, 1-isopropylamino-3-(p-isobutyryloxyphenoxy)-propanol-2] | > 1 | > 100 | about 1/100 | 0.006 | -8 | 5 | 0 | 19 | 11 | No side effect was observed | 34 | time of maximum effect, oral (heart [4]; 100 μg/kg bodyweight orally): 30 min; oral effect (in words) (heart [4]; oral, 100 μg/kg bodyweight): comparable with those obtained after intravenous administration of 20 μg/kg bodyweight; positive inotropic effect compared with ouabain (in words) (heart [4]; versus relatively high dose of ouabain): comparable to the effect of the relatively high dose of ouabain |
| CC(C)NCC(O)COc1ccc(OC(=O)c2ccccc2)cc1 (centres unmarked) [III, 1-isopropylamino-3-(p-benzoyloxyphenoxy)-propanol-2] | > 1 | > 100 | about 1/100 | 0.01 | – | – | – | – | – | – | – | – |
| CC(C)NCC(O)COc1ccc(OC(=O)C(C)(C)C)cc1 (centres unmarked) [IV, 1-isopropylamino-3-(p-pivaloyloxyphenoxy)-propanol-2] | > 1 | – | – | 0.06 | – | – | – | – | – | – | – | Selectivity: ED50 Vasodilatation / ED50 Heart Frequency ([2]; in vivo): > 15 |
| CC(C)NCC(O)c1ccc(O)c(O)c1 (centres unmarked) [Isoprenaline, reference compound] | – | – | – | – | -2 | – | -10 | 19 | – | – | – | mean blood pressure (in words) (heart [4]; conscious dog, infusion): decreased the mean blood pressure; contractility / inotropic effect in conscious dog (in words) (heart [4]; i.v.): increased the contractility less than compounds I and II |
| C[C@@H]1O[C@@H](O[C@H]2C[C@@H](O)[C@]3(CO)[C@H]4[C@H](O)C[C@]5(C)[C@@H](C6=CC(=O)OC6)CC[C@]5(O)[C@@H]4CC[C@]3(O)C2)[C@H](O)[C@H](O)[C@H]1O [Ouabain, reference compound] | – | – | – | – | -2 | 5 | 10 | 12 | 10 | vomiting | 30 | experiments with RVR (heart [5]): more than 50%; increase of aortic blood pressure (heart [6]; 20 minutes after administration): about 10 mm Hg; doses giving approximately the same level of maximum dP/dt (lower pair) (heart [6]; [10]): ~20 μg/kg bodyweight; doses giving corresponding effect on maximum dP/dt (higher pair) (heart [6]; [10]): 40 μg/kg bodyweight; effect on maximum dP/dt (in words) (heart [6]; [11]): increased maximum dP/dt; onset of effect on maximum dP/dt (heart [6]; [11]): within a minute; reduction of effect on maximum dP/dt after 50 minutes (heart [6]; [11]): only partly reduced after 50 minutes; time to maximal effect on maximum dP/dt (heart [6]; [11]): about 20 minutes; heart frequency (in words) (heart [4]; [9]): expected decrease of the heart frequency; time of maximum response after i.v. administration (heart [4]; ouabain 30 μg/kg i.v.): about 50 minutes |
| NC[C@H](O)c1ccc(O)c(O)c1 [norepinephrine, reference compound] | – | – | – | – | – | – | – | – | – | – | – | duration of substantially high incidence of ectopic activity (heart [7]): at least 90 minutes |
